Test results: US12370192B2, “Azole-fused pyridazin-3(2H)-one derivatives” (TAKEDA PHARMACEUTICAL COMPANY LIMITED, priority 2019, dated 2025)

Assays:
human GPR139 receptor [1] = target: T1, human GPR139 receptor (Homo sapiens, UniProt Q6DWJ6); assay: Measurement of GPR139 Activation Via Calcium Signaling (FLIPR, T-REx-CHO cells); assay type: cell-based; conditions: T-REx-CHO cells stably expressing human GPR139, 11-point dose response, 10 μM maximum concentration, read-out: GPR139 Potency (pEC50) (converted)
T1 construct: expressed in transfected cells; host or cells: T-REx-CHO (Thermo Fisher Scientific), doxycycline-induced
T1 sequence (Q6DWJ6 1-353): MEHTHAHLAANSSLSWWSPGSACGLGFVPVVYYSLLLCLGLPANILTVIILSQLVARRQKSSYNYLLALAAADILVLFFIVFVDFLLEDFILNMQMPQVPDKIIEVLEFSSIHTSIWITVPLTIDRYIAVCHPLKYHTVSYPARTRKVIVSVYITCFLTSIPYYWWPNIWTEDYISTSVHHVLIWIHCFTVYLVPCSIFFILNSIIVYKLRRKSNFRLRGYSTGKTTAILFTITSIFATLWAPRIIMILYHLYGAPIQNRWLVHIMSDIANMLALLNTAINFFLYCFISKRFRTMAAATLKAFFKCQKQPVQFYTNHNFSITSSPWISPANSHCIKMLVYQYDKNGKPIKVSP
In short: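 Calcium flux read by FLIPR for 1 min after adding compounds (11 concentrations, maximum 10 μM) to doxycycline-induced (2 μg/mL, 17 h) T-REx-CHO cells expressing human GPR139. Cells dye-loaded 40 min at 37 °C in HBSS, 1 mM HEPES pH 7.4 with probenecid; activation reported as pEC50 from four-parameter logistic fit.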

human GPR139 receptor [2] = target: T1, human GPR139 receptor; assay: GPR139 Competition Binding (membrane-based, tritium-labeled ligand); conditions: T-REx-CHO membranes with human GPR139; 6.5 nM tritium-labeled ligand; 11-point curve, 30 μM maximum concentration; read-out: GPR139 Binding Affinity (pKi) (converted)
In short: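 Membranes came from doxycycline-induced T-REx-CHO cells expressing human GPR139. They were incubated 20 min at room temperature with 6.5 nM tritiated ligand and compound (11 points, top 30 μM) in HEPES pH 7.3 buffer with MgCl2/CaCl2. Filter-bound counts gave Ki by four-parameter fit, reported as pKi.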

Row | Compound | EC50 (human GPR139 receptor [1]) | Ki (human GPR139 receptor [2])
1 | Cc1ccc([C@H](C)NC(=O)Cn2nc(C)c3c(c(C)nn3C(C)C)c2=O)c(F)c1 [Example 54, (S)—N-(1-(2-fluoro-4-methylphenyl)ethyl)-2-(1-isopropyl-3,7-dimethyl-4-oxo-1,4-dihydro-5H-pyrazolo[3,4-d]pyridazin-5-yl)acetamide] | 0.107 µM | 0.0871 µM
2 | Cc1ccc([C@H](C)NC(=O)Cn2nc(C)c3c(c(C)nn3C(C)C)c2=O)cc1 [Example 55, (S)-2-(1-isopropyl-3,7-dimethyl-4-oxo-1,4-dihydro-5H-pyrazolo[3,4-d]pyridazin-5-yl)-N-(1-(p-tolyl)ethyl)acetamide] | 0.0832 µM | 0.38 µM
3 | Cc1nn(C(C)C)c2c(C)nn(CC(=O)N[C@@H](C)c3ccc(C(F)(F)F)cc3)c(=O)c12 [Example 56, (S)-2-(1-isopropyl-3,7-dimethyl-4-oxo-1,4-dihydro-5H-pyrazolo[3,4-d]pyridazin-5-yl)-N-(1-(4-(trifluoromethyl)phenyl)ethyl)acetamide] | 0.214 µM | 0.479 µM
4 | COc1ccc([C@H](C)NC(=O)Cn2nc(C)c3c(c(C)nn3C(C)C)c2=O)cc1 [Example 57, (S)-2-(1-isopropyl-3,7-dimethyl-4-oxo-1,4-dihydro-5H-pyrazolo[3,4-d]pyridazin-5-yl)-N-(1-(4-methoxyphenyl)ethyl)acetamide] | 0.132 µM | 3.09 µM
5 | Cc1nn(C2CC2)c2c(=O)n(CC(=O)N[C@@H](C)c3ccc(C(F)(F)F)cn3)ncc12 [Example 58, (S)-2-(1-cyclopropyl-3-methyl-7-oxo-1,7-dihydro-6H-pyrazolo[3,4-d]pyridazin-6-yl)-N-(1-(5-(trifluoromethyl)pyridin-2-yl)ethyl)acetamide] | 0.0741 µM | 1.35 µM
6 | Cc1nn(CC(=O)N[C@@H](C)c2ccc(C(F)(F)F)cn2)c(=O)c2c1c(C)nn2C(C)C [Example 59, (S)-2-(1-isopropyl-3,4-dimethyl-7-oxo-1,7-dihydro-6H-pyrazolo[3,4-d]pyridazin-6-yl)-N-(1-(5-(trifluoromethyl)pyridin-2-yl)ethyl)acetamide] | 0.347 µM | 0.741 µM
7 | Cc1nn(C)c2c(=O)n(CC(=O)N[C@@H](C)c3ccc(C(F)(F)F)cn3)ncc12 [Example 60, (S)-2-(1,3-dimethyl-7-oxo-1,7-dihydro-6H-pyrazolo[3,4-d]pyridazin-6-yl)-N-(1-(5-(trifluoromethyl)pyridin-2-yl)ethyl)acetamide] | 0.214 µM | 30.2 µM
8 | Cc1nn(CC(=O)NC(C)c2ccc3c(c2)CCCO3)c(=O)c2c1c(C)nn2C1CC1 (stereo not shown) [Example 61, N-(1-(chroman-6-yl)ethyl)-2-(1-cyclopropyl-3,4-dimethyl-7-oxo-1,7-dihydro-6H-pyrazolo[3,4-d]pyridazin-6-yl)acetamide] | 0.141 µM | 0.0417 µM
9 | Cc1ccc([C@H](C)NC(=O)Cn2ncc3c(c(C)cn3C3CC3)c2=O)cc1F [Example 62, (S)-2-(1-cyclopropyl-3-methyl-4-oxo-1,4-dihydro-5H-pyrrolo[2,3-d]pyridazin-5-yl)-N-(1-(3-fluoro-4-methylphenyl)ethyl)acetamide] | 0.0251 µM | 0.00214 µM
10 | Cc1cc(Cl)ccc1[C@H](C)NC(=O)Cn1ncc2c(c(C)cn2C2CC2)c1=O [Example 63, (S)—N-(1-(4-chloro-2-methylphenyl)ethyl)-2-(1-cyclopropyl-3-methyl-4-oxo-1,4-dihydro-5H-pyrrolo[2,3-d]pyridazin-5-yl)acetamide] | 0.0851 µM | 0.002 µM
11 | Cc1cc(C)c([C@H](C)NC(=O)Cn2ncc3c(c(C)cn3C3CC3)c2=O)c(C)c1 [Example 64, (S)-2-(1-cyclopropyl-3-methyl-4-oxo-1,4-dihydro-5H-pyrrolo[2,3-d]pyridazin-5-yl)-N-(1-mesitylethyl)acetamide] | 0.12 µM | 0.00209 µM
12 | Cc1ccc([C@H](C)NC(=O)Cn2ncc3c(c(C)cn3C3CC3)c2=O)c(C)c1 [Example 65, (S)-2-(1-cyclopropyl-3-methyl-4-oxo-1,4-dihydro-5H-pyrrolo[2,3-d]pyridazin-5-yl)-N-(1-(2,4-dimethylphenyl)ethyl)acetamide] | 0.0676 µM | 0.00372 µM
13 | Cc1cn(C2CC2)c2cnn(CC(=O)N[C@@H](C)c3ccc(F)cc3Cl)c(=O)c12 [Example 66, (S)—N-(1-(2-chloro-4-fluorophenyl)ethyl)-2-(1-cyclopropyl-3-methyl-4-oxo-1,4-dihydro-5H-pyrrolo[2,3-d]pyridazin-5-yl)acetamide] | 0.0794 µM | 0.000794 µM
14 | COc1cc(Cl)ccc1C[C@H](C)NC(=O)Cn1ncc2c(c(C)cn2C2CC2)c1=O [Example 67, (S)—N-(1-(4-chloro-2-methoxyphenyl)propan-2-yl)-2-(1-cyclopropyl-3-methyl-4-oxo-1,4-dihydro-5H-pyrrolo[2,3-d]pyridazin-5-yl)acetamide] | 0.0851 µM | 0.00389 µM
15 | Cc1ccc([C@H](C)NC(=O)Cn2nc(C)c3c(C)nn(C4CC4)c3c2=O)cc1F [Example 68, (S)-2-(1-cyclopropyl-3,4-dimethyl-7-oxo-1,7-dihydro-6H-pyrazolo[3,4-d]pyridazin-6-yl)-N-(1-(3-fluoro-4-methylphenyl)ethyl)acetamide] | 0.0692 µM | 0.000347 µM
16 | Cc1ccc([C@H](C)NC(=O)Cn2nc(C)c3c(C)nn(C4CC4)c3c2=O)c(F)c1 [Example 69, (S)-2-(1-cyclopropyl-3,4-dimethyl-7-oxo-1,7-dihydro-6H-pyrazolo[3,4-d]pyridazin-6-yl)-N-(1-(2-fluoro-4-methylphenyl)ethyl)acetamide] | 0.0692 µM | 0.000447 µM
17 | Cc1cc(C)c([C@H](C)NC(=O)Cn2nc(C)c3c(C)nn(C4CC4)c3c2=O)c(C)c1 [Example 70, (S)-2-(1-cyclopropyl-3,4-dimethyl-7-oxo-1,7-dihydro-6H-pyrazolo[3,4-d]pyridazin-6-yl)-N-(1-mesitylethyl)acetamide] | 0.178 µM | 0.000759 µM
18 | Cc1nn(CC(=O)N[C@@H](C)c2ccc(F)cc2Cl)c(=O)c2c1c(C)nn2C1CC1 [Example 71, (S)—N-(1-(2-chloro-4-fluorophenyl)ethyl)-2-(1-cyclopropyl-3,4-dimethyl-7-oxo-1,7-dihydro-6H-pyrazolo[3,4-d]pyridazin-6-yl)acetamide] | 0.0933 µM | 0.000398 µM
19 | Cc1nn(CC(=O)N[C@@H](C)c2ccc(C(F)(F)F)cc2)c(=O)c2cnn(C)c12 [Example 72, (S)-2-(1,7-dimethyl-4-oxo-1,4-dihydro-5H-pyrazolo[3,4-d]pyridazin-5-yl)-N-(1-(4-(trifluoromethyl)phenyl)ethyl)acetamide] | 0.055 µM | 1.91 µM
20 | Cc1nn(CC(=O)N[C@@H](C)c2ccc(OC(F)(F)F)cc2)c(=O)c2cnn(C)c12 [Example 73, (S)-2-(1,7-dimethyl-4-oxo-1,4-dihydro-5H-pyrazolo[3,4-d]pyridazin-5-yl)-N-(1-(4-(trifluoromethoxy)phenyl)ethyl)acetamide] | 0.0631 µM | 3.47 µM
21 | Cc1ccc([C@H](C)NC(=O)Cn2nc(C)c3c(cnn3C)c2=O)cc1 [Example 74, (S)-2-(1,7-dimethyl-4-oxo-1,4-dihydro-5H-pyrazolo[3,4-d]pyridazin-5-yl)-N-(1-(p-tolyl)ethyl)acetamide] | 0.0933 µM | 2.45 µM
22 | Cc1nn(CC(=O)N[C@@H](C)c2ccc(C(F)(F)F)cc2)c(=O)c2cnn(C(C)C)c12 [Example 75, (S)-2-(1-isopropyl-7-methyl-4-oxo-1,4-dihydro-5H-pyrazolo[3,4-d]pyridazin-5-yl)-N-(1-(4-(trifluoromethyl)phenyl)ethyl)acetamide] | 0.617 µM | 2.34 µM
23 | Cc1ccc([C@H](C)NC(=O)Cn2nc(C)c3c(cnn3C3CC3)c2=O)cc1 [Example 80, (S)-2-(1-cyclopropyl-7-methyl-4-oxo-1,4-dihydro-5H-pyrazolo[3,4-d]pyridazin-5-yl)-N-(1-(p-tolyl)ethyl)acetamide] | 0.251 µM | 1.66 µM
24 | Cc1ccc([C@H](C)NC(=O)Cn2nc(C)c3c(cnn3C3CC3)c2=O)c(F)c1 [Example 81, (S)-2-(1-cyclopropyl-7-methyl-4-oxo-1,4-dihydro-5H-pyrazolo[3,4-d]pyridazin-5-yl)-N-(1-(2-fluoro-4-methylphenyl)ethyl)acetamide] | 0.145 µM | 0.331 µM
25 | Cc1ccc([C@H](C)NC(=O)Cn2nc(C)c3c(cnn3C)c2=O)c(F)c1 [Example 82] | 0.0417 µM | 0.55 µM
26 | Cc1nn(C2CC2)c2c(=O)n(CC(=O)N3CCCC3c3ccc(Cl)cc3)ncc12 (stereo not shown) [Example 85, 6-(2-(2-(4-chlorophenyl)pyrrolidin-1-yl)-2-oxoethyl)-1-cyclopropyl-3-methyl-1,6-dihydro-7H-pyrazolo[3,4-d]pyridazin-7-one] | 0.741 µM | 0.055 µM
